In US20220089598A1, “INHIBITORS OF HUMAN IMMUNODEFICIENCY VIRUS REPLICATION” (VIIV HEALTHCARE UK (No. 5) LIMITED, priority 2018, published 2022):

What was measured:
[1] = system: recombinant NL4-3 virus (Renilla luciferase) in MT-2 cells; assay: HIV cell culture assay (antiviral activity, luciferase readout); format: cell-based; conditions: Renilla, NL43
Procedure: HIV cell culture assay—MT-2 cells, 293T cells and the proviral DNA clone of NL4-3 virus were obtained from the NIH AIDS Research and Reference Reagent Program. MT-2 cells were propagated in RPMI 1640 media supplemented with 10% heat inactivated fetal bovine serum (FBS), 100 μg/ml penicillin G and up to 100 units/mL streptomycin. The 293T cells were propagated in DMEM media supplemented with 10% heat inactivated FBS, 100 μg/mL penicillin G and 100 μg/mL streptomycin. A recombinant NL4-3 proviral clone, in which a section of the nef gene was replaced with the Renilla luciferase gene, was used to make the reference virus used in these studies. The recombinant virus was prepared through transfection of the recombinant NL4-3 proviral clone into 293T cells using Transit-293 Transfection Reagent from Mirus Bio LLC (Madison, Wis.). Supernatent was harvested after 2-3 days and the amount of virus present was titered in MT-2 cells using luciferase enzyme activity as a marker by measuring luciferase enzyme activity. Luciferase was quantitated using the EnduRen Live Cell Substrate from Promega (Madison, Wis.). Antiviral activities of compounds toward the recombinant virus were quantified by measuring luciferase activity in MT-2 cells infected for 4-5 days with the recombinant virus in the presence of serial dilutions of the compound.
The 50% effective concentration (EC50) was calculated by using the exponential form of the median effect equation where (Fa)=1/[1+(ED50/drug conc.)m] (Johnson V A, Byington R T. Infectivity Assay. In Techniques in HIV Research. ed. Aldovini A, Walker B D. 71-76. New York: Stockton Press. 1990).

[2] = Compound cytotoxicity, XTT-based colorimetric assay; format: cell-based; conditions: human; uninfected MT2 cells, day 4, XTT assay
Procedure: Compound cytotoxicity and the corresponding CC50 values were determined using the same protocol as described in the antiviral assay except that uninfected cells were used. Cytotoxicity was assessed on day 4 in uninfected MT2 cells by using a XTT (2,3-bis[2-Methoxy-4-nitro-5-sulfophenyl]-2H-tetrazolium-5-carboxyanilide inner salt)-based colorimetric assay (Sigma-Aldrich, St Louis, Mo.).

SMILES | EC50 [1] [nM] | CC50 at 4 day [2] [nM]
Cn1nc(NS(C)(=O)=O)c2c(Cl)ccc(-n3c([C@H](Cc4cc(F)cc(F)c4)NC(=O)Cn4nc(C(F)F)c5c4C(F)(F)[C@@H]4C[C@H]54)nc4nc(-c5ccc(F)cc5S(C)(=O)=O)ccc4c3=O)c21 (atropisomer, axis not shown; (P)) [Example 19, N—((S)-1-((3P)-3-(4-chloro-1-methyl-3-(methylsulfonamido)-1H-indazol-7-yl)-7-(4-fluoro-2-(methylsulfonyl)phenyl)-4-oxo-3,4-dihydropyrido[2,3-d]pyrimidin-2-yl)-2-(3,5-difluorophenyl)ethyl)-2-((3bS,4aR)-3-(difluoromethyl)-5,5-difluoro-3b,4,4a,5-tetrahydro-1H-cyclopropa[3,4]cyclopenta[1,2-c]pyrazol-1-yl)acetamide] | 0.12 | > 500
Cn1nc(NS(C)(=O)=O)c2c(Cl)ccc(-n3c([C@H](Cc4cc(F)cc(F)c4)NC(=O)Cn4nc(C(F)F)c5c4C(F)(F)[C@@H]4C[C@H]54)nc4nc(-c5ccc(Cl)cc5F)ccc4c3=O)c21 (atropisomer, axis not shown; (P)) [Example 8, N—((S)-1-((3P)-3-(4-chloro-1-methyl-3-(methylsulfonamido)-1H-indazol-7-yl)-7-(4-chloro-2-fluorophenyl)-4-oxo-3,4-dihydropyrido[2,3-d]pyrimidin-2-yl)-2-(3,5-difluorophenyl)ethyl)-2-((3bS,4aR)-3-(difluoromethyl)-5,5-difluoro-3b,4,4a,5-tetrahydro-1H-cyclopropa[3,4]cyclopenta[1,2-c]pyrazol-1-yl)acetamide] | 0.067 | > 20000
Cn1nc(NS(C)(=O)=O)c2c(Cl)ccc(-n3c([C@H](Cc4cc(F)cc(F)c4)NC(=O)Cn4nc(C(F)F)c5c4C(F)(F)[C@@H]4C[C@H]54)nc4nc(-c5ccc(F)c(F)c5F)ccc4c3=O)c21 (atropisomer, axis not shown; (P)) [Example 15, N—((S)-1-((3P)-3-(4-chloro-1-methyl-3-(methylsulfonamido)-1H-indazol-7-yl)-4-oxo-7-(2,3,4-trifluorophenyl)-3,4-dihydropyrido[2,3-d]pyrimidin-2-yl)-2-(3,5-difluorophenyl)ethyl)-2-((3bS,4aR)-3-(difluoromethyl)-5,5-difluoro-3b,4,4a,5-tetrahydro-1H-cyclopropa[3,4]cyclopenta[1,2-c]pyrazol-1-yl)acetamide] | 0.035 | > 100
COc1nc2nc([C@H](Cc3cc(F)cc(F)c3)NC(=O)Cn3nc(C(F)F)c4c3C(F)(F)[C@@H]3C[C@H]43)n(-c3ccc(Cl)c4c(NS(C)(=O)=O)nn(C)c34)c(=O)c2cc1-c1ccccc1F (atropisomer, axis not shown; (P)) [Example 2, N—((S)-1-((3P)-3-(4-chloro-1-methyl-3-(methylsulfonamido)-1H-indazol-7-yl)-6-(2-fluorophenyl)-7-methoxy-4-oxo-3,4-dihydropyrido[2,3-d]pyrimidin-2-yl)-2-(3,5-difluorophenyl)ethyl)-2-((3bS,4aR)-3-(difluoromethyl)-5,5-difluoro-3b,4,4a,5-tetrahydro-1H-cyclopropa[3,4]cyclopenta[1,2-c]pyrazol-1-yl)acetamide] | 0.25 | > 1000
Cn1nc(NS(C)(=O)=O)c2c(Cl)ccc(-n3c([C@H](Cc4cc(F)cc(F)c4)NC(=O)Cn4nc(C(F)F)c5c4C(F)(F)[C@@H]4C[C@H]54)nc4nc(-c5cc(Cl)c(F)cc5F)ccc4c3=O)c21 (atropisomer, axis not shown; (P)) [Example 6, N—((S)-1-((3P)-3-(4-chloro-1-methyl-3-(methylsulfonamido)-1H-indazol-7-yl)-7-(5-chloro-2,4-difluorophenyl)-4-oxo-3,4-dihydropyrido[2,3-d]pyrimidin-2-yl)-2-(3,5-difluorophenyl)ethyl)-2-((3bS,4aR)-3-(difluoromethyl)-5,5-difluoro-3b,4,4a,5-tetrahydro-1H-cyclopropa[3,4]cyclopenta[1,2-c]pyrazol-1-yl)acetamide] | 0.192 | > 100
Cn1nc(NS(C)(=O)=O)c2c(Cl)ccc(-n3c([C@H](Cc4cc(F)cc(F)c4)NC(=O)Cn4nc(C(F)F)c5c4C(F)(F)[C@@H]4C[C@H]54)nc4nc(-c5ccc(Cl)cc5Cl)ccc4c3=O)c21 (atropisomer, axis not shown; (P)) [Example 25, N—((S)-1-((3P)-3-(4-chloro-1-methyl-3-(methylsulfonamido)-1H-indazol-7-yl)-7-(2,4-dichlorophenyl)-4-oxo-3,4-dihydropyrido[2,3-d]pyrimidin-2-yl)-2-(3,5-difluorophenyl)ethyl)-2-((3bS,4aR)-3-(difluoromethyl)-5,5-difluoro-3b,4,4a,5-tetrahydro-1H-cyclopropa[3,4]cyclopenta[1,2-c]pyrazol-1-yl)acetamide] | 0.42 | > 100
Cn1nc(NS(C)(=O)=O)c2c(Cl)ccc(-n3c([C@H](Cc4cc(F)cc(F)c4)NC(=O)Cn4nc(C(F)F)c5c4C(F)(F)[C@@H]4C[C@H]54)nc4nc(-c5ccc(F)c(CO)c5)ccc4c3=O)c21 (atropisomer, axis not shown; (P)) [Example 5, N—((S)-1-((3P)-3-(4-chloro-1-methyl-3-(methylsulfonamido)-1H-indazol-7-yl)-7-(4-fluoro-3-(hydroxymethyl)phenyl)-4-oxo-3,4-dihydropyrido[2,3-d]pyrimidin-2-yl)-2-(3,5-difluorophenyl)ethyl)-2-((3bS,4aR)-3-(difluoromethyl)-5,5-difluoro-3b,4,4a,5-tetrahydro-1H-cyclopropa[3,4]cyclopenta[1,2-c]pyrazol-1-yl)acetamide] | 0.16 | > 500
Cn1nc(NS(C)(=O)=O)c2c(Cl)ccc(-n3c([C@H](Cc4cc(F)cc(F)c4)NC(=O)Cn4nc(C(F)(F)F)c5c4C(F)(F)[C@@H]4C[C@H]54)nc4nc(-c5ccccc5F)ccc4c3=O)c21 (atropisomer, axis not shown; (P)) [Example 17, N—((S)-1-((3P)-3-(4-chloro-1-methyl-3-(methylsulfonamido)-1H-indazol-7-yl)-7-(2-fluorophenyl)-4-oxo-3,4-dihydropyrido[2,3-d]pyrimidin-2-yl)-2-(3,5-difluorophenyl)ethyl)-2-((3bS,4aR)-5,5-difluoro-3-(trifluoromethyl)-3b,4,4a,5-tetrahydro-1H-cyclopropa[3,4]cyclopenta[1,2-c]pyrazol-1-yl)acetamide] | 0.065 | > 100
Cn1nc(NS(C)(=O)=O)c2c(Cl)ccc(-n3c([C@H](Cc4cc(F)cc(F)c4)NC(=O)Cn4nc(C(F)F)c5c4C(F)(F)[C@@H]4C[C@H]54)nc4nc(-c5ccc(F)c(Cl)c5F)ccc4c3=O)c21 (atropisomer, axis not shown; (P)) [Example 22, N—((S)-1-((3P)-3-(4-chloro-1-methyl-3-(methylsulfonamido)-1H-indazol-7-yl)-7-(3-chloro-2,4-difluorophenyl)-4-oxo-3,4-dihydropyrido[2,3-d]pyrimidin-2-yl)-2-(3,5-difluorophenyl)ethyl)-2-((3bS,4aR)-3-(difluoromethyl)-5,5-difluoro-3b,4,4a,5-tetrahydro-1H-cyclopropa[3,4]cyclopenta[1,2-c]pyrazol-1-yl)acetamide] | 0.1 | > 100
